Laboratory results: patent publication US7772240B2, “Trans-1(6-chloro-3-phenylindan-1-yl)-3,3-dimethylpiperazine” (H. Lundbeck A/S, priority 2003, dated 2010)

What was measured:
human CYP2D6 = target: T1, human CYP2D6 (Homo sapiens, UniProt P10635); test: CYP2D6 inhibitor assay (recombinant microsomes, AMMC substrate); assay type: in vitro ADME; details: result in words
T1 construct: purchased BD Biosciences (Gentest) 456217; host or cells: baculovirus/insect cells
Protocol: Principle: The inhibition of human CYP2D6 is assessed using microsomes prepared from baculovirus/insect cells cDNA expressing CYP2D6 as enzyme sources and the specific CYP2D6 substrate AMMC (3-[2-(N,N-diethyl-N-methylammonium)-ethyl]-7-methoxy-4-methylcoumarin). AMMC is O-demethylated to AHMC (3-[2-(N,N-diethylamino)ethyl]-7-hydroxy-4-methylcoumarin) which is detected by measuring appearance of fluorescence.
Microsomes prepared from baculovirus/insect cells cDNA expressing CYP2D6 were obtained from BD Biosciences (Gentest 456217). Fluorescence measured Ex. (405 nm) Em. (465 nm) by a SpectroFluor Plus Plate Reader (Tecan Nordic). Incubations with the recombinant CYP2D6 micrsomes contained 1.5 pmol of the recombinant CYP2D6 in 0.2 ml total volume 100 mM phosphate buffer at pH 7.4 containing […] AMMC (3-[2-(N,N-diethyl-N-methylammonium)-ethyl]-7-methoxy-4-methylcoumarin) with a low NADPH-regenerating system consisting of 0.0082 mM NADP^+, 0.41 mM glucose 6-phosphate, 0.41 mM magnesium chloride and 0.4 units/ml glucose-6-phoshate dehydrogenase. The incubation time was 45 min and the incubations were quenched by addition of 0.075 ml 80% Acetonitrile 20% 0.5 M Tris base. All chemicals were of analytical grade from Sigma (St. Louis, Mo.). […] The IC50 values were calculated by linear interpolation.

human D2 receptor [1] = target: T2, human D2 receptor (Homo sapiens, UniProt P14416); test: DA D2 receptor binding ([3H]-Spiperone)
T2 construct: expressed in transfected cells; host or cells: CHO cells
Protocol: (§1) For all assays: Results are expressed as percent inhibition of control specific binding and the IC50 values (concentration causing a half-maximal inhibition of control specific binding) are determined by non-linear regression analysis using Hill equation curve fitting. The inhibition constants (Ki) were calculated from the Cheng Prusoff equation Ki=IC50/(1+(L/KD)), where L equals the concentration of radioligand in the assay) and KD equals the affinity of the radioligand for the receptor.
CHO cells expressing approximately 800 fmol/mg human recombinant D2 receptors were generated standard stable transfection techniques. […] Total binding was determined in the presence of buffer and non-specific binding was determined in the presence of 10 μM haloperidol. The mixture was incubated for 30 minutes at 37° C., cooled briefly on ice. Bound and free radioactivity was separated by vacuum filtration on GF/C filters pretreated with 0.1% Polyetyleneime (PEI) and filters were counted in a scintillation counter.

human D1 receptors [2] = target: T3, human D1 receptors (Homo sapiens, UniProt P21728); test: DA D1 receptor binding ([3H]-SCH23390, Cerep); design: host or cells: CHO cells (membranes)
Protocol: For all assays: Results are expressed as percent inhibition of control specific binding and the IC50 values (concentration causing a half-maximal inhibition of control specific binding) are determined by non-linear regression analysis using Hill equation curve fitting. The inhibition constants (Ki) were calculated from the Cheng Prusoff equation Ki=IC50/(1+(L/KD)), where L equals the concentration of radioligand in the assay) and KD equals the affinity of the radioligand for the receptor. Affinities towards human D1 receptors were determined at the contract laboratory Cerep using the catalog reference assay no 803-1h. Membranes from CHO cells expressing human recombinant D1 receptors were used. 0.3 nM [^3H]-SCH23390 was used as radioligand and compounds were tested in a serial dilution concurrently with the reference compound SCH23390 in order to assess the assay suitability. Aliqouts were incubates at 22° C. for 60 min and bound radioactivity are measured with a liquid scintillation counter. Specific control binding to the D1 receptors was defined as the difference between the total binding determined without compound present and the non-specific binding determined in the presence of 1 μm SCH 23390.

human D2 receptor [3] = target: T2, human D2 receptor; test: DA D2 efficacy assay, inhibition of D2 mediated inhibition of cAMP formation in CHO cells; assay type: cell-based
Protocol: The ability of the compounds to inhibit the D2 receptor mediated inhibition of cAMP formation in CHO cells transfected with the human D2 receptor was measure as follows.
Cells were seeded in 96 well plates at a concentration of 8000 cells/well 3 days prior to the experiment. On the day of the experiment the cells were washed once in preheated G buffer (1 mM MgCl2, 0.9 mM CaCl2, 1 mM IBMX in PBS) and the assay was initiated by addition of 100 μl of a mixture of 1 μM quinpirole, 10 μM forskolin and test compound in G buffer. The cells were incubated 20 minutes at 37° C. and the reaction was stopped by the addition of 100 μl S buffer (0.1 M HCl and 0.1 mM CaCl2) and the plates were placed at 4° C. for 1 hour. 68 μl N buffer (0.15 M NaOH and 60 mM NaAc) were added and the plates were shaken for 10 minutes. 60 μl of the reaction were transferred to cAMP FlashPlates (DuPont NEN) containing 40 μl 60 mM NaAc pH 6.2 and 100 μl IC mix (50 mM NaAc pH 6.2, 0.1% NaAzid, 12 mM CaCl2, 1% BSA and 0.15 μCi/ml ^125I-cAMP) were added. Following an 18-hour incubation at 4° C. the plates were washed once and counted in a Wallac TriLux counter.

[4] = QT-interval in the alpha-chloralose anaesthetised rabbit; assay type: in vivo
Protocol: The model described in the following was originally designed as a proarrhytmic model by Carlsson et al, [J Cardiovasc Pharmacol. 1990;16:276-85.] and has been modified to fit into screening set-up as described below under “animal preparation”.
Male rabbits (HsdIf:NZW, outbreed) weighing 2.0-2.8 kg were purchased from Harlan (The Netherlands). Individual body weights were measured and recorded on the day of experiment. […]
ECG, blood pressure and HR were continuously recorded on a Maclab 8/s using the Chart software v3.6.1 for the Macintosh computer. […] Effects on the electrocardiogram (PQ-, QRS-, QT-, QTc-intervals and heart rate) and mean arterial blood pressure (MAP) were recorded and measured electronically.

5-HT2A receptors = target: T4, 5-HT2A receptors (Homo sapiens, UniProt P28223); test: Serotonin 5-HT2A efficacy assay (Ca2+ fluorescence, CHO cells); assay type: cell-based
T4 construct: expressed in transfected cells; host or cells: CHO cells
Protocol: 2 or 3 days before the experiment, CHO cells expressing 250 fmol/mg S-HT2A receptors are plated at a density sufficient to yield a mono-confluent layer on the day of the experiment. The cells are dye loaded (Ca^2+-kit from Molecular Devices and using Hank's balanced salt w/o phenol red, added 20 mM HEPES and pH adjusted to 7.4 with 2M NaOH as assaybuffer) for 60 minutes at 37° C. in a 5% CO2 incubator at 95% humidity. Lacer intensity is set to a suitable level to obtain basal values of approximately 8000-10000 fluorescence units. The variation in basal fluorescence should be less than 10%. EC50 values are assessed using increasing concentrations of test compound covering at least 3 decades. IC50 values are assessed challenging the same range of concentrations of test substances with EC85 of 5-HT. Test substances are added to the cells 5 minutes before the 5-HT. […] Maximum inhibition is the level of inhibition the curve reaches. It is expressed as the percentage inhibition at that level and used to distinguish full and partial antagonists.

alpha-1 adrenoceptors = test: Alpha-1 adrenoceptor binding ([3H]Prazosin); design: species or system rat
Protocol: as §1
Chinese hamster ovary (CHO) cell lines expressing rat alpha1d and Baby hamster Kidney (BHK) cells expressing bovine alpha1a were generated using standard stable transfection techniques. The Rat-1 cell line expressing the hamster alpha1b receptor was obtained from University of Utah, Salt Lake City, Utah. […] Total binding was determined using assay buffer and non-specific binding was defined in the presence of 1 μM WB-4101 for all subtypes of alpha1 receptors. […] In all assays bound and free radioactivity were separated by vacuum filtration on GF/B filters pretreated with Polyetyleneimine (PEI) and counted in a scintillation counter.
By this method, the inhibition by drugs of the binding of [^3H]Prazosin (0.25 nM) to alpha-1 receptors in membranes from rat brain is determined in vitro. […]

human D1 receptors [5] = target: T3, human D1 receptors; test: DA D1 efficacy assay, inhibition of D1 mediated cAMP formation in CHO cells; assay type: cell-based; design: expressed in transfected cells; host or cells: CHO cell line generated in-house
Protocol: The ability of the compounds to inhibit the D1 receptor mediated cAMP formation in a CHO cell line generated in-house stably expressing the human recombinant D1 receptor was measured as follows. Cells were seeded in 96-well plates at a concentration of 11000 cells/well 3 days prior to the experiment. On the day of the experiment the cells were washed once in preheated G buffer (1 mM MgCl2, 0.9 mM CaCl2, 1 mM IBMX in PBS) and the assay was initiated by addition of 100 μl of a mixture of 30 nM A68930 and test compound diluted in G buffer. The cells were incubated for 20 minutes at 37° C. and the reaction was stopped by the addition of 100 μl S buffer (0.1 M HCl and 0.1 mM CaCl2) and the plates were placed at 4° C. for 1 hour. 68 μl N buffer (0.15 M NaOH and 60 mM NaAc) was added and the plates were shaken for 10 minutes. 60 μl of the reaction were transferred to cAMP FlashPlates (DuPont NEN) containing 40 μl 60 mM NaAc pH 6.2 and 100 μl IC mix (50 mM NaAc pH 6.2, 0.1% NaAzid, 12 mM CaCl2, 1% BSA and 0.15 μCi/ml ^125I-cAMP) were added. Following an 18-hour incubation at 4° C. the plates were washed once and counted in a Wallac TrLux counter.

D1 and D2 = details: cited from earlier work
5-HT2 = details: cited from earlier work
α1 adrenoceptors = details: cited from earlier work
D1/D2 = details: cited from earlier work

T2 sequence (P14416 whole entry): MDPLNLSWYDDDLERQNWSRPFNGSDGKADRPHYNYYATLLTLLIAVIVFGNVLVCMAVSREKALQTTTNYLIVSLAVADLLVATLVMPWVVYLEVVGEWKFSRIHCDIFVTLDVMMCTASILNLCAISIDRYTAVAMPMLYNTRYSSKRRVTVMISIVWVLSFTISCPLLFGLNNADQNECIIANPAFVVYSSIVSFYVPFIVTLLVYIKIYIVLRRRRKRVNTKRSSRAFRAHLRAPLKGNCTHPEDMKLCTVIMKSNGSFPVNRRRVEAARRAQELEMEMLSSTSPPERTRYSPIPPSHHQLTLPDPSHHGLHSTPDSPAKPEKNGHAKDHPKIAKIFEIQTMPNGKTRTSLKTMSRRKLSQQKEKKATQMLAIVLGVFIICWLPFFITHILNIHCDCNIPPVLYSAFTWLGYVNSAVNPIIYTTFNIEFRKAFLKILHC
T3 sequence (P21728 whole entry): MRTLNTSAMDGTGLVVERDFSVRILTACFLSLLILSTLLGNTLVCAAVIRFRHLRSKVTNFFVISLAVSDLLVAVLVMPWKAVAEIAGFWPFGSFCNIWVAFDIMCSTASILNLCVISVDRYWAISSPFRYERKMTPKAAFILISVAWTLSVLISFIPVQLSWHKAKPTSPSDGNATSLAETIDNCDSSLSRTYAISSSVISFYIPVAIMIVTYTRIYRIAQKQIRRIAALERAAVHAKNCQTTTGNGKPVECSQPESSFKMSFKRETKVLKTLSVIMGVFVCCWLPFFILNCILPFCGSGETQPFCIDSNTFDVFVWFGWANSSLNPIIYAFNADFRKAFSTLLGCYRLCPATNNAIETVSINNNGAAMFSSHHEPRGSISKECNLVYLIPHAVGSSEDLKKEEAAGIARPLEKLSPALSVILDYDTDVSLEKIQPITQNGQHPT
T1 sequence (P10635 whole entry): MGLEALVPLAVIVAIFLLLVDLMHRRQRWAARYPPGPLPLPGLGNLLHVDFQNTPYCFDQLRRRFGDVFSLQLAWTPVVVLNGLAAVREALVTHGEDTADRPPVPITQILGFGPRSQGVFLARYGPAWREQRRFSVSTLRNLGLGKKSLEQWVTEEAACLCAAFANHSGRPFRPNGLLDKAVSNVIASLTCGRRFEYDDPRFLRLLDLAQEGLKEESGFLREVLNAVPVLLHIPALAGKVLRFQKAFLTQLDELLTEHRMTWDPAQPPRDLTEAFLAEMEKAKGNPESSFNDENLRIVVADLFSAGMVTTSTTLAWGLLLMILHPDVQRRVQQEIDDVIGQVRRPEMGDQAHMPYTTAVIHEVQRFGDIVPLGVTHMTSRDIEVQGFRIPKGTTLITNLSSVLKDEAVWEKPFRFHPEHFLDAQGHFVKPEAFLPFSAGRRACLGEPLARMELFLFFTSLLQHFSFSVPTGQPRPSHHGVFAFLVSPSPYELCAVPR
T4 sequence (P28223 whole entry): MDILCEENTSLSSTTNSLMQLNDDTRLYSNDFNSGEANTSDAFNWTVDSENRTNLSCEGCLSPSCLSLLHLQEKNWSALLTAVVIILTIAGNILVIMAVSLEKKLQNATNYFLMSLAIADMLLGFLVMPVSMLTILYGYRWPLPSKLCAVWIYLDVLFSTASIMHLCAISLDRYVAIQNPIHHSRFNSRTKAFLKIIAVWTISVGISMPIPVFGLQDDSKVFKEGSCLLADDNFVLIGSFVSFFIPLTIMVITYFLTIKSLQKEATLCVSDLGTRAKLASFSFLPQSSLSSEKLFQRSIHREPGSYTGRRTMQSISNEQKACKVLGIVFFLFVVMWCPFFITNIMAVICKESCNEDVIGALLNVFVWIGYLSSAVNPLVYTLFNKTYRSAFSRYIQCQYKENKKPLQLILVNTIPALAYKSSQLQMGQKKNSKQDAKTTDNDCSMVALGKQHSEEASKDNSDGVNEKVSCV

SMILES	inhibition of CYP2D6 (human CYP2D6)	affinity for dopamine D2 receptors (human D2 receptor [1])	affinity for dopamine D1 receptors (human D1 receptors [2])	functional activity at dopamine D2 receptors (human D2 receptor [3])	prolonging effect on the QT-interval in the electrocardiogram (ECG) [4]	functional activity at serotonin 5-HT2a receptors (5-HT2A receptors)	affinity for alfa1 adrenoceptors (alpha-1 adrenoceptors)	functional activity at dopamine D1 receptors (human D1 receptors [5])	D1 and D2 antagonism in vivo (D1 and D2)	5-HT2 antagonism (5-HT2)	affinity for α1 adrenoceptors (α1 adrenoceptors)	D1/D2 antagonism in vitro (D1/D2)
CC1(C)CN([C@@H]2C[C@@H](c3ccccc3)c3ccc(Cl)cc32)CCN1 (racemic) [racemate of the compound of the present invention, trans-1-(6-chloro-3-phenylindan-1-yl)-3,3-dimethylpiperazine]	considerable more potent											
CC1(C)CN([C@@H]2C[C@@H](c3ccccc3)c3ccc(Cl)cc32)CCN1 [Compound I, trans-1-((1R,3S)-6-chloro-3-phenylindan-1-yl)-3,3-dimethylpiperazine]	relatively weak inhibitor	high affinity	high affinity	antagonist	relatively low prolonging effect	antagonist	high affinity	antagonist				
CN1CCN([C@@H]2C[C@@H](c3ccccc3)c3ccc(Cl)cc32)CC1(C)C [(−)-38]									equipotent as D1 and D2 antagonist	potent 5-H T2 antagonist	high affinity	potent D1/D2 antagonists showing some D1 selectivity
